Measurements: US20220289794A1, “SYNTHETIC ANTIMICROBIAL PEPTIDES” (priority 2019, published 2022)
In brackets after ≈: the same amount, converted by molar mass. Non-standard residues stand in square brackets, D forms with d. Residues, ends and D or L forms follow the SMILES beside them. dDip = N[C@@H](C(=O)O)C(c1ccccc1)c1ccccc1; Dip = N[C@H](C(=O)O)C(c1ccccc1)c1ccccc1; 2Nal = N[C@@H](Cc1ccc2ccccc2c1)C(=O)O; d2Nal = N[C@H](Cc1ccc2ccccc2c1)C(=O)O

Columns and labels:
[1] = test system: Methicillin-resistant Staphylococcus aureus MRSA (ATCC BAA-1556); conditions: ATCC BAA-1556
[2] = test system: Escherichia coli (ATCC 25922); conditions: ATCC 25922
[3] = in vitro; conditions: human, fresh human red blood cells (washed), pH 7.4
Experimental: Hemolytic Assay. We investigated the hemolytic effect (hemolytic assay) of the compounds on fresh human red blood cells to determine the cytotoxicity of the compounds. The hemolytic assay was conducted by serial dilution using 1% Triton X, 0.2% Triton X and PBS buffer pH 7.4 as controls. […] 3 mL of the fresh blood sample was washed severally by adding about 10 mL PBS buffer pH 7.4 and centrifuge at 4000 G until the supernatant was cleared. The washed blood sample was diluted to 20 mL volume to be used in the study. An aliquot of 190 μL blood sample was added to 10 μL compound sample in an Eppendorf tube and incubated for 30 min. After incubation, it was centrifuged at 4000 G for 5 min. 100 μL supernatant aliquot was diluted with 1 mL PBS buffer, and the absorbance was measured at 567 nm for the sample. % hemolysis is calculated as follows:
Where AX is the absorbance at various serial concentrations A0 absorbance of PBS buffer pH 7.4 AX absorbance of 0.2% Triton X control equivalent to 100%

[4] = test system: S. aureus ATCC 29213; conditions: ATCC 29213
[5] = test system: Pseudomonas aeruginosa (ATCC 27883); conditions: ATCC 27883

SMILES	MIC MRSA ATCC BAA-1556 [1] [µg/mL]	MIC E. coli ATCC 25922 [2] [µg/mL]	HC50 at 0.5 h [3] [µg/mL]	MIC S. aureus ATCC 29213 [4] [µg/mL]	MIC P. aeruginosa ATCC 27883 [5] [µg/mL]
N=C(N)NCCC[C@@H](N)C(=O)N[C@H](CCCNC(=N)N)C(=O)N[C@H](CCCNC(=N)N)C(=O)N[C@H](CCCNC(=N)N)C(=O)N[C@@H](C(=O)N[C@@H](C(=O)N[C@@H](C(=O)O)C(c1ccccc1)c1ccccc1)C(c1ccccc1)c1ccccc1)C(c1ccccc1)c1ccccc1 [IFX-067-1] (H-[dR][dR][dR][dR][dDip][dDip][dDip]-OH)	3.1 (≈ 2.36 µM)	6.2 (≈ 4.72 µM)	390	3.1 (≈ 2.36 µM)	12.5 (≈ 9.52 µM)
N=C(N)NCCC[C@@H](N)C(=O)N[C@H](CCCNC(=N)N)C(=O)N[C@H](CCCNC(=N)N)C(=O)N[C@H](CCCNC(=N)N)C(=O)N[C@@H](Cc1c[nH]c2ccccc12)C(=O)N[C@H](Cc1ccc2ccccc2c1)C(=O)N[C@H](Cc1ccc2ccccc2c1)C(=O)O [IFX-109-1] (H-[dR][dR][dR][dR]W[d2Nal][d2Nal]-OH)	3.1 (≈ 2.53 µM)	12.5 (≈ 10.2 µM)	375	3.1 (≈ 2.53 µM)	12.5 (≈ 10.2 µM)
N=C(N)NCCC[C@@H]1NC(=O)[C@H](CCCNC(=N)N)NC(=O)[C@@H](Cc2ccc3ccccc3c2)NC(=O)[C@@H](Cc2ccc3ccccc3c2)NC(=O)[C@H](Cc2c[nH]c3ccccc23)NC(=O)[C@@H](CCCNC(=N)N)NC(=O)[C@@H](CCCNC(=N)N)NC(=O)[C@H](CCCNC(=N)N)NC1=O [IFX-125, c[Arg-Arg-Arg-arg-arg-Trp-naI-naI]] (cyclo(RRR[dR][dR]W[d2Nal][d2Nal]))	3.1 (≈ 2.28 µM)	16 (≈ 11.8 µM)	485	3.1 (≈ 2.28 µM)	32 (≈ 23.5 µM)
N=C(N)NCCC[C@H](NC(=O)[C@@H](CCCNC(=N)N)NC(=O)[C@@H](N)CCCNC(=N)N)C(=O)N[C@H](CCCNC(=N)N)C(=O)N[C@@H](Cc1c[nH]c2ccccc12)C(=O)N[C@H](Cc1ccc2ccccc2c1)C(=O)N[C@H](Cc1ccc2ccccc2c1)C(=O)O [IFX-111-1] (H-R[dR]R[dR]W[d2Nal][d2Nal]-OH)	3.1 (≈ 2.53 µM)	25 (≈ 20.4 µM)	310	3.1 (≈ 2.53 µM)	25 (≈ 20.4 µM)
N=C(N)NCCC[C@@H](N)C(=O)N[C@@H](CCCNC(=N)N)C(=O)N[C@H](CCCNC(=N)N)C(=O)N[C@@H](CCCNC(=N)N)C(=O)N[C@@H](C(=O)N[C@@H](C(=O)N[C@@H](C(=O)O)C(c1ccccc1)c1ccccc1)C(c1ccccc1)c1ccccc1)C(c1ccccc1)c1ccccc1 [IFX-068-1] (H-[dR]R[dR]R[dDip][dDip][dDip]-OH)	6.2 (≈ 4.72 µM)	12.5 (≈ 9.52 µM)	355	3.1 (≈ 2.36 µM)	25 (≈ 19 µM)
NCCCC[C@@H]1NC(=O)[C@H](CCCCN)NC(=O)[C@H](CCCCN)NC(=O)[C@@H](Cc2ccc3ccccc3c2)NC(=O)[C@@H](Cc2ccc3ccccc3c2)NC(=O)[C@@H](Cc2c[nH]c3ccccc23)NC(=O)[C@H](CCCCN)NC(=O)[C@H](CCCCN)NC1=O [IFX-132, c[Lys-Lys-Lys-Lys-Lys-trp-naI-naI]] (cyclo(KKKKK[dW][d2Nal][d2Nal]))	12.5 (≈ 10.2 µM)	128 (≈ 105 µM)	930	12.5 (≈ 10.2 µM)	128 (≈ 105 µM)
NCCCC[C@H]1NC(=O)[C@@H](CCCCN)NC(=O)[C@@H](CCCCN)NC(=O)[C@@H](Cc2ccc3ccccc3c2)NC(=O)[C@@H](Cc2ccc3ccccc3c2)NC(=O)[C@@H](Cc2c[nH]c3ccccc23)NC(=O)[C@@H](CCCCN)NC(=O)[C@@H](CCCCN)NC1=O [IFX-133, c[lys-lys-lys-lys-lys-trp-naI-naI]] (cyclo([d2Nal][d2Nal][dK][dK][dK][dK][dK][dW]))	6.2 (≈ 5.08 µM)	128 (≈ 105 µM)	580	6.2 (≈ 5.08 µM)	128 (≈ 105 µM)
N=C(N)NCCC[C@@H]1NC(=O)[C@H](CCCNC(=N)N)NC(=O)[C@H](CCCNC(=N)N)NC(=O)[C@@H](Cc2ccc3ccccc3c2)NC(=O)[C@@H](Cc2ccc3ccccc3c2)NC(=O)[C@@H](Cc2c[nH]c3ccccc23)NC(=O)[C@H](CCCNC(=N)N)NC1=O [IFX-114, c[Arg-Arg-Arg-Arg-trp-naI-naI]] (cyclo(RRRR[dW][d2Nal][d2Nal]))	3.1 (≈ 2.57 µM)	12.5 (≈ 10.4 µM)	380	3.1 (≈ 2.57 µM)	25 (≈ 20.7 µM)
N=C(N)NCCC[C@H](NC(=O)[C@H](CCCNC(=N)N)NC(=O)[C@@H](N)CCCNC(=N)N)C(=O)N[C@@H](CCCNC(=N)N)C(=O)N[C@@H](C(=O)N[C@@H](C(=O)N[C@@H](C(=O)O)C(c1ccccc1)c1ccccc1)C(c1ccccc1)c1ccccc1)C(c1ccccc1)c1ccccc1 [IFX-072-1] (H-RRRR[dDip][dDip][dDip]-OH)	6.2 (≈ 4.72 µM)	6.2 (≈ 4.72 µM)	470	3.1 (≈ 2.36 µM)	12.5 (≈ 9.52 µM)
NCCCC[C@@H]1NC(=O)[C@@H](CCCCN)NC(=O)[C@H](CCCCN)NC(=O)[C@@H](CCCCN)NC(=O)[C@@H](Cc2ccc3ccccc3c2)NC(=O)[C@@H](Cc2ccc3ccccc3c2)NC(=O)[C@H](Cc2c[nH]c3ccccc23)NC1=O [IFX-128, c[lys-Lys-lys-Lys-Trp-naI-naI]] (cyclo(KW[d2Nal][d2Nal][dK]K[dK]))	6.2 (≈ 5.67 µM)	64 (≈ 58.5 µM)	590	6.2 (≈ 5.67 µM)	64 (≈ 58.5 µM)
NCCCC[C@H]1NC(=O)[C@@H](CCCCN)NC(=O)[C@@H](CCCCN)NC(=O)[C@@H](Cc2ccc3ccccc3c2)NC(=O)[C@@H](Cc2ccc3ccccc3c2)NC(=O)[C@@H](Cc2c[nH]c3ccccc23)NC(=O)[C@@H](CCCCN)NC1=O [IFX-130, c[lys-lys-lys-lys-trp-naI-naI]] (cyclo([d2Nal][d2Nal][dK][dK][dK][dK][dW]))	12.5 (≈ 11.4 µM)	128 (≈ 117 µM)	880	6.2 (≈ 5.67 µM)	128 (≈ 117 µM)
N=C(N)NCCC[C@H](NC(=O)[C@H](CCCNC(=N)N)NC(=O)[C@H](CCCNC(=N)N)NC(=O)[C@@H](N)CCCNC(=N)N)C(=O)N[C@@H](Cc1c[nH]c2ccccc12)C(=O)N[C@H](Cc1ccc2ccccc2c1)C(=O)N[C@H](Cc1ccc2ccccc2c1)C(=O)O [IFX-112-1] (H-RRRRW[d2Nal][d2Nal]-OH)	3.1 (≈ 2.53 µM)	12.5 (≈ 10.2 µM)	370	6.2 (≈ 5.07 µM)	25 (≈ 20.4 µM)
N=C(N)NCCC[C@@H](N)C(=O)N[C@H](CCCNC(=N)N)C(=O)N[C@H](CCCNC(=N)N)C(=O)N[C@H](CCCNC(=N)N)C(=O)N[C@H](C(=O)N[C@H](C(=O)N[C@H](C(=O)O)C(c1ccccc1)c1ccccc1)C(c1ccccc1)c1ccccc1)C(c1ccccc1)c1ccccc1 [IFX-073-1] (H-[dR][dR][dR][dR][Dip][Dip][Dip]-OH)	6.2 (≈ 4.72 µM)	6.2 (≈ 4.72 µM)	410	3.1 (≈ 2.36 µM)	12.5 (≈ 9.52 µM)
N=C(N)NCCC[C@@H](N)C(=O)N[C@H](CCCNC(=N)N)C(=O)N[C@H](CCCNC(=N)N)C(=O)N[C@H](CCCNC(=N)N)C(=O)N[C@@H](Cc1c[nH]c2ccccc12)C(=O)N[C@@H](Cc1ccc2ccccc2c1)C(=O)N[C@@H](Cc1ccc2ccccc2c1)C(=O)O [IFX-113-1] (H-[dR][dR][dR][dR]W[2Nal][2Nal]-OH)	6.2 (≈ 5.07 µM)	12.5 (≈ 10.2 µM)	300	6.2 (≈ 5.07 µM)	12.5 (≈ 10.2 µM)
N=C(N)NCCC[C@@H]1NC(=O)[C@H](CCCNC(=N)N)NC(=O)[C@H](CCCNC(=N)N)NC(=O)[C@H](CCCNC(=N)N)NC(=O)[C@@H](Cc2ccc3ccccc3c2)NC(=O)[C@H](Cc2ccc3ccccc3c2)NC(=O)[C@H](Cc2c[nH]c3ccccc23)NC1=O [IFX-102, c[Arg-Arg-Arg-Arg-Trp-NaI-naI]] (cyclo([2Nal][d2Nal]RRRRW))	3.1 (≈ 2.57 µM)	12.5 (≈ 10.4 µM)	200	3.1 (≈ 2.57 µM)	25 (≈ 20.7 µM)
